Assay results reported in US10138232B2, “Naphthyridinedione derivatives” (NOVARTIS AG, priority 2014, dated 2018).

System: CFTR-Y122X (GFP-CFTR-Y122X-Renilla construct) in Hek293 cell lines
Test: CFTR-Y122X assay (dual reporter readthrough, Renilla luminescence)
Type: cell-based
Settings: Homo sapiens; for AC50: nonsense mutation suppression in the CFTR-Y122X assay; for AC50 / Emax: compounds incubated 24 h, tested up to 100 μM; for Emax: nonsense mutation suppression, 100% activity = 14 mM paromomycin, read-out: Amax
Text: In particular, compounds of formula (I), (I′), (Ia), (Ia′) or (Ib) I act as nonsense mutation suppressors on frequent PTCs, e.g. on Y122X in the mRNA of the cystic fibrosis conductance regulator protein (CFTR). This can be determined in vitro, for example, using cell lines expressing GFP-CFTR-Y122X-Renilla constructs as described herein.
Activity of compounds of the present invention was examined in recombinant, dual reporter isogenic Hek293 cell lines (“CFTR-Y122X assay”). The engineered reporter constructs contained the 18 bp sequence strech corresponding to a common Y122X PTC mutation in CFTR class I mutant patients (see Sermet-Gaudelus, BMC Medicine, 2007, 5(5)). Instead of a tyrosine (Y) in position 122 of the CFTR protein a TGA stop codon interrupts the open reading frame (Y122X) of the corresponding mRNA. This TGA stop codon triplet (followed by the pyrimidine base cytosine) is permissive to aminoglycoside mediated translational readthrough which served as positive control for high throughput screening. A corresponding TAA stop codon variant and a wildtype non mutated construct was used for confirmation and counter screening. The CFTR sequence was sandwiched between an eGFP reporter, and a triple myc tag sequence fused to a full length Renilla reporter. All sequences, including an intron containing one positioned pre-eGFP (b-globin intron) were cloned in frame. The corresponding expression constructs were stably expressed in the isogenic HEK-R4 cell host (Invitrogen Incorp.) and selected by blasticidin resistance. The isogenic integration of the construct minimizes gene dose effects and improves assay reproducibility. Stably integrated single cell derived clones were selected and characterized for aminoglycoside mediated readthrough. […] Readthrough of Y122X accumulates an intracellular localized fusion protein approximately 65.5 kDa in size as controlled by western blot analysis and immunofluorescence using an anti-renilla antibody. The eGFP reporter pre-PTC mutation serves as visual control for genetic stability of the screening clones and minimizes protein degradation of small fusion protein amounts. In the assay, compound concentration was 10 μM. In miniaturized 1536 well format 2000 cells were dispensed in 4 μl/well and incubated for 24 h at 37° C., 5% CO2. 40 nl compounds were placed on the cells with control wells containing 1 ul Paramomycin and 14.4 mM final concentration. Compounds were incubated for 24 h. Renilla Glo substrate (2.5 ul) was added and plates were centrifuged and processed for luminescence measurement using various readers. Activity calculation was done using the equation: A1(%)=100*(S−NC)/(AC−NC) where AC, NC and S correspond to active controls (injection of Stimulation buffer=100% stimulation), neutral controls (buffer injection which Iloprost EC10) and screening samples (S). NC corresponds to 0% activity whereas AC is 100% activity (14 mM paromomycin). False positive artefacts were removed in confirmation and validation screening using the same assay format followed by counterscreening using the respective wildtype construct (w/o PTC mutation) cell model. Compounds were tested up to 100 μM compound concentration.

Row | SMILES | AC50 | Emax | EC50 (clone pursued for HTS assay development, read-out: EC50 (response of selected clone, aminoglycoside mediated readthrough))
1 | Cc1cc2[nH]c3cc(C(C)C)n(-c4ccccc4)c(=O)c3c(=O)c2s1 [Example 1.18, 6-isopropyl-2-methyl-7-phenylthieno[3,2-b][1,6]naphthyridine-8,9(4H,7H)-dione] | 3.9 µM | 240% | 
2 | COc1cccc2c(=O)c3c(=O)n(-c4ccccc4)c(C(C)C)cc3[nH]c12 [Example 1.47, 3-isopropyl-6-methoxy-2-phenylbenzo[b][1,6]naphthyridine-1,10(2H,5H)-dione] | 5.2 µM | 312% | 
3 | Cn1c2c(c(=O)c3c(=O)n(-c4ccccc4)c(C4CCC4)cc31)CCC2 [Example 1.24, 3-cyclobutyl-5-methyl-2-phenyl-5,6,7,8-tetrahydro-1H-cyclopenta[b][1,6]naphthyridine-1,9(2H)-dione] | 18.4 µM | 157% | 
4 | O=c1c2ccccc2[nH]c2cc(C3CCC3)n(-c3ccccn3)c(=O)c12 [Example 2.5, 3-cyclobutyl-2-(pyridin-2-yl)benzo[b][1,6]naphthyridine-1,10(2H,5H)-dione] | 2.7 µM | 217% | 
5 | Cn1c2ccccc2c(=O)c2c(=O)n(C3CCCC3)c(C3CCC3)cc21 [Example 2.2, 3-cyclobutyl-2-cyclopentyl-5-methylbenzo[b][1,6]naphthyridine-1,10(2H,5H)-dione] | 2.1 µM | 262% | 
6 | CC(C)c1cc2c(c(=O)c3ccsc3n2C)c(=O)n1-c1ccccc1 [Example 1.13, 7-isopropyl-9-methyl-6-phenylthieno[2,3-b][1,6]naphthyridine-4,5(6H,9H)-dione] | 8.6 µM | 445% | 
7 | CC(C)c1cc2c(c(=O)c3ccccc3n2C)c(=O)n1N1CCCC1 [Example 2.12, 3-isopropyl-5-methyl-2-(pyrrolidin-1-yl)benzo[b][1,6]naphthyridine-1,10(2H,5H)-dione] | 1.7 µM | 178% | 
8 | Cn1c2ccccc2c(=O)c2c(=O)n(N3CCCC3)c(C3CCC3)cc21 [Example 2.8, 3-cyclobutyl-5-methyl-2-(pyrrolidin-1-yl)benzo[b][1,6]naphthyridine-1,10(2H,5H)-dione] | 6.1 µM | 188% | 
9 | O=c1c2ccccc2[nH]c2cc(C3CCC3)n(-c3ccccc3)c(=O)c12 [Example 1.1, 3-Cyclobutyl-2-phenylbenzo[b][1,6]naphthyridine-1,10(2H,5H)-dione] | 0.6 µM | 219% | 
10 | Cc1c(C)n(C)c2cc(C3CCC3)n(-c3ccccc3)c(=O)c2c1=O [Example 1.25, 7-cyclobutyl-1,2,3-trimethyl-6-phenyl-1,6-naphthyridine-4,5(1 H,6H)-dione] | 16.8 µM | 87% | 
11 | Cc1cc2[nH]c3cc(C4CCC4)n(-c4ccccc4)c(=O)c3c(=O)c2s1 [Example 1.37, 6-cyclobutyl-2-methyl-7-phenylthieno[3,2-b][1,6]naphthyridine-8,9(4H,7H)-dione] | 1.4 µM | 164% | 
12 | CC(C)c1cc2[nH]c3ccccc3c(=O)c2c(=O)n1-c1ccccc1 [Example 1.3, 3-isopropyl-2-phenylbenzo[b][1,6]naphthyridine-1,10(2H,5H)-dione] | 1.1 µM | 281% | 
13 | O=c1c2cc(Cl)ccc2[nH]c2cc(C3CCC3)n(-c3ccccc3)c(=O)c12 [Example 1.40, 8-chloro-3-cyclobutyl-2-phenylbenzo[b][1,6]naphthyridine-1,10(2H,5H)-dione] | 1 µM | 300% | 
14 | COc1ccc2[nH]c3cc(C(C)C)n(-c4ccccc4)c(=O)c3c(=O)c2c1 [Example 1.50, 3-isopropyl-8-methoxy-2-phenylbenzo[b][1,6]naphthyridine-1,10(2H,5H)-dione] | 16.9 µM | 110% | 
15 | CC(C)c1c(Cl)c2[nH]c3ccccc3c(=O)c2c(=O)n1-c1ccccc1 [Example 3.1, 4-chloro-3-isopropyl-2-phenylbenzo[b][1,6]naphthyridine-1,10(2H,5H)-dione] | 3.2 µM | 211% | 
16 | COc1cccc2c(=O)c3c(=O)n(-c4ccccc4)c(C(C)C)cc3n(C)c12 [Example 1.43, 3-isopropyl-6-methoxy-5-methyl-2-phenylbenzo[b][1,6]naphthyridine-1,10(2H,5H)-dione] | 22 µM | 186% | 
17 | O=c1c2c([nH]c3cc(C4CCC4)n(-c4ccccc4)c(=O)c13)CCC2 [Example 1.26, 3-cyclobutyl-2-phenyl-5,6,7,8-tetrahydro-1H-cyclopenta[b][1,6]naphthyridine-1,9(2H)-dione] | 3.3 µM | 229% | 
18 | Cc1cc2c(s1)c(=O)c1c(=O)n(-c3ccccc3)c(C(C)C)cc1n2C [Example 1.19, 6-isopropyl-2,4-dimethyl-7-phenylthieno[3,2-b][1,6]naphthyridine-8,9(4H,7H)-dione] | 12.8 µM | 253% | 
19 | CC(C)c1cc2c(c(=O)c3ccsc3n2C)c(=O)n1C1CCCC1 [Example 2.16, 6-cyclopentyl-7-isopropyl-9-methylthieno[2,3-b][1,6]naphthyridine-4,5(6H,9H)-dione] | 1.2 µM | 279% | 
20 | CC(C)c1cc2[nH]c3sccc3c(=O)c2c(=O)n1-c1ccccc1 [Example 1.12, 7-isopropyl-6-phenylthieno[2,3-b][1,6]naphthyridine-4,5(6H,9H)-dione] | 19 µM | 248% | 
21 | CC(C)c1cc2c(c(=O)c3cc(O)ccc3n2C)c(=O)n1-c1ccccc1 [Example 1.51, 8-hydroxy-3-isopropyl-5-methyl-2-phenylbenzo[b][1,6]naphthyridine-1,10(2H,5H)-dione] | 16.5 µM | 144% | 
22 | Cc1cc2c(=O)c3c(=O)n(-c4ccccc4)c(C4CCC4)cc3n(C)c2s1 [Example 1.31, 7-cyclobutyl-2,9-dimethyl-6-phenylthieno[2,3-b][1,6]naphthyridine-4,5(6H,9H)-dione] | 0.6 µM | 228% | 
23 | CC(C)c1cc2[nH]c3ccc(Cl)cc3c(=O)c2c(=O)n1-c1ccccc1 [Example 1.7, 8-chloro-3-isopropyl-2-phenylbenzo[b][1,6]naphthyridine-1,10(2H,5H)-dione] | 2.4 µM | 215% | 
24 | CC(C)c1cc2[nH]c3ccsc3c(=O)c2c(=O)n1-c1ccccc1 [Example 1.16, 6-isopropyl-7-phenylthieno[3,2-b][1,6]naphthyridine-8,9(4H,7H)-dione] | 1.6 µM | 344% | 
25 | CC(C)c1cc2[nH]c3ccccc3c(=O)c2c(=O)n1N1CCCC1 [Example 2.11, 3-isopropyl-2-(pyrrolidin-1-yl)benzo[b][1,6]naphthyridine-1,10(2H,5H)-dione] | 0.9 µM |  | 
26 | O=c1c2sccc2[nH]c2cc(C3CCC3)n(-c3ccccc3)c(=O)c12 [Example 1.35, 6-cyclobutyl-7-phenylthieno[3,2-b][1,6]naphthyridine-8,9(4H,7H)-dione] | 0.4 µM | 126% | 
27 | Cn1c2ccccc2c(=O)c2c(=O)n(-c3ccccc3)c(C3CCC3)cc21 [Example 1.2, 3-Cyclobutyl-5-methyl-2-phenylbenzo[b][1,6]naphthyridine-1,10(2H,5H)-dione] | 1 µM | 260% | 
28 | CC(C)c1cc2[nH]c3ccccc3c(=O)c2c(=O)n1C1CCCC1 [Example 2.3, 2-cyclopentyl-3-isopropylbenzo[b][1,6]naphthyridine-1,10(2H,5H)-dione] | 0.4 µM | 235% | 
29 | NC[C@@H]1O[C@H](O[C@H]2[C@@H](O)[C@H](O[C@@H]3[C@@H](O)[C@H](N)C[C@H](N)[C@H]3O[C@H]3O[C@H](CO)[C@@H](O)[C@H](O)[C@H]3N)O[C@@H]2CO)[C@H](N)[C@@H](O)[C@@H]1O [paromomycin, reference compound] |  |  | 1500 µM
30 | Cn1c2ccsc2c(=O)c2c(=O)n(-c3ccccc3)c(C3CCC3)cc21 [Example 1.34, 6-cyclobutyl-4-methyl-7-phenylthieno[3,2-b][1,6]naphthyridine-8,9(4H,7H)-dione] | 1 µM | 263% | 
